Results taken from paper PMC11555678, “Improved Broad Spectrum Antifungal Drug Synergies with Cryptomycin, a Cdc50-Inspired Antifungal Peptide” (ACS Infectious Diseases, 2024).
Converted amounts (≈) assume the structure as drawn. Read-outs that look alike come from different tables or passages of the source.

Key:
C. auris B11245 = format: cell-based, Candida auris; settings: RPMI1640, 37 °C, 48 h; for MIC of antifungal in combination with KKOO-NH2: MIC = well with <20% growth
Method: (§1) All microdilution assays with fungi were carried out in accordance with CLSI protocols from M27 for yeasts and M38 for filamentous fungi, respectively, unless otherwise specified.[64],[65] Briefly, 96-well plates were charged with RPMI1640 media, with operating volume in the first column, 200 μL, and half operating volume, 100 μL, in the remaining wells. Drug stock solution in DMSO was aliquoted into the first well in each row. Half of the volume in the dosed well was serially diluted 2-fold until column 11. Column 11 was used as the negative growth control, and column 12 was used as the positive growth control. ON yeast cultures in YPD were washed twice in DD-H2O, resuspended in PBS, and adjusted to 5000 cfu/mL in RPMI. The 96-well plate was inoculated with 100 μL aliquots of cell suspension per well. Plates were incubated at 37 °C for 2 days.
(§2) To assess drug synergy, the initial media charged to the plate contained the peptide at twice the final operating concentration; the remaining processing steps were identical to the MIC experiment. Upon addition of 100 μL of inoculant, the final operating concentration was achieved. Control MIC plates were prepared alongside drug synergy plates to account for the day-to-day variability in any individual MIC. FIC index is computed using eq 1. All MIC assays and drug synergy assays were completed with two technical replicates per 96-well plate and a minimum of two biological replicates per drug combination. If a difference in MIC between the two technical replicates on the plate were observed, only the higher concentration was reported as the MIC to reduce the possibility of type 1 error (false positive) [drawing 1] 1

A. fumigatus AF293 [1] = experiment: Drug synergy (MIC in peptide-supplemented media); format: cell-based, Aspergillus fumigatus; settings: RPMI1640, 37 °C, 48 h; for MIC of antifungal in combination with KKOO-NH2: MIC = well with <20% growth
Method: as §1, §2

C. neoformans apt2Δ = experiment: microbe, parasite or virus in culture; format: cell-based, Cryptococcus neoformans; settings: Cryptococcus neoformans, 48 h
Procedure, shortened: (§3)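 Two-fold dilution series prepared from DMSO stocks in RPMI1640 were inoculated with 5000 cfu/mL yeast per CLSI M27, then kept at 37 °C for 2 days.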

C. neoformans Crm1^OE = experiment: microbe, parasite or virus in culture; format: cell-based, Cryptococcus neoformans; settings: Cryptococcus neoformans, 48 h
Procedure, shortened: as §3

C. neoformans cdc50Δ = experiment: microbe, parasite or virus in culture; format: cell-based, Cryptococcus neoformans; settings: Cryptococcus neoformans, 48 h
Procedure, shortened: as §3

C. neoformans crm1Δ = experiment: microbe, parasite or virus in culture; format: cell-based, Cryptococcus neoformans; settings: Cryptococcus neoformans, 48 h
Procedure, shortened: as §3

C. neoformans apt3Δ = experiment: microbe, parasite or virus in culture; format: cell-based, Cryptococcus neoformans; settings: Cryptococcus neoformans, 48 h
Procedure, shortened: as §3

C. neoformans apt1Δ = experiment: microbe, parasite or virus in culture; format: cell-based, Cryptococcus neoformans; settings: Cryptococcus neoformans, 48 h
Procedure, shortened: as §3

C. neoformans apt4Δ = experiment: microbe, parasite or virus in culture; format: cell-based, Cryptococcus neoformans; settings: Cryptococcus neoformans, 48 h
Procedure, shortened: as §3

C. neoformans MRL862 = experiment: microbe, parasite or virus in culture; format: cell-based, Cryptococcus neoformans; settings: RPMI1640, 37 °C, 48 h
Procedure, shortened: as §3

C. neoformans H99 [2] = experiment: microbe, parasite or virus in culture; format: cell-based, Cryptococcus neoformans; settings: Cryptococcus neoformans, H99; compound alone; RPMI1640, 37 °C, 48 h; read-out: MIC
Procedure, shortened: as §3

C. albicans SC5413 [3] = experiment: microbe, parasite or virus in culture; format: cell-based, Candida albicans; settings: Candida albicans, SC5413; compound alone; RPMI1640, 37 °C, 48 h; read-out: MIC
Procedure, shortened: as §3

C. albicans SC5413 [4] = format: cell-based, Candida albicans; settings: RPMI1640, 37 °C, 48 h; for MIC of antifungal in combination with KKOO: azole MICs unclear (intermediate phenotype); for MIC of antifungal in combination with KKOO-NH2: azole MICs could not be determined (intermediate phenotype)
Method: as §1, §2

C. neoformans H99 [5] = format: cell-based, Cryptococcus neoformans; settings: RPMI1640, 37 °C; for MIC of antifungal in combination with KKOO / MIC of antifungal in combination with KKOO-NH2: 48 h
C. glabrata FKS1-S629P = experiment: microbe, parasite or virus in culture; format: cell-based, Candida glabrata; settings: Nakaseomyces glabratus, FKS1S629P, 48 h
Procedure, shortened: as §3

C. glabrata FKS2-S663P = experiment: microbe, parasite or virus in culture; format: cell-based, Candida glabrata; settings: Nakaseomyces glabratus, FKS2S663P, 48 h
Procedure, shortened: as §3

C. glabrata 2001 = experiment: microbe, parasite or virus in culture; format: cell-based, Candida glabrata; settings: Nakaseomyces glabratus, 2001; compound alone; RPMI1640, 37 °C, 48 h; read-out: MIC
Procedure, shortened: as §3

A. fumigatus AF293 [6] = experiment: microbe, parasite or virus in culture; format: cell-based, Aspergillus fumigatus
[7] = +0 μg/mL KKOO (control), CAS: paradoxical growth, MIC = <20% growth
[8] = +0 μg/mL KKOO-NH2 (control), CAS: paradoxical growth
[9] = +1 μg/mL KKOO-NH2, CAS: paradoxical growth
[10] = +1 μg/mL KKOO, CAS: paradoxical growth, MIC = <20% growth
[11] = +2 μg/mL KKOO-NH2, CAS: paradoxical growth
[12] = +2 μg/mL KKOO, CAS: paradoxical growth, MIC = <20% growth
[13] = +4 μg/mL KKOO-NH2, CAS: paradoxical growth
[14] = +4 μg/mL KKOO, CAS: paradoxical growth, MIC = <20% growth

For `OC(Cn1cncn1)(Cn1cncn1)c1ccc(F)cc1F` [FLC, fluconazole], the “MIC of antifungal in combination with KKOO” value (C. auris B11245; [7]) was over 128 µg/mL, the “MIC of antifungal in combination with KKOO-NH2” value (“MIC … with KKOO-NH2” for short) (C. auris B11245; [8]) was over 128 µg/mL and the “MIC … with KKOO-NH2” value (C. auris B11245; [9]) was over 128 µg/mL. The “MIC of antifungal in combination with KKOO” value (C. auris B11245; [10]) was over 128 µg/mL, the “MIC … with KKOO-NH2” value (C. auris B11245; [11]) was over 128 µg/mL and the “MIC of antifungal in combination with KKOO” value (C. auris B11245; [12]) was over 128 µg/mL. The “MIC … with KKOO-NH2” value (C. auris B11245; [13]) was over 128 µg/mL, the “MIC of antifungal in combination with KKOO” value (C. auris B11245; [14]) was over 128 µg/mL and the “MIC of antifungal in combination with KKOO” value (C. auris B11245; +8 μg/mL KKOO) was over 128 µg/mL. For the same compound, the “MIC of antifungal in combination with KKOO” value (A. fumigatus AF293 [1]; [7]) was over 128 µg/mL, the “MIC … with KKOO-NH2” value (A. fumigatus AF293 [1]; [8]) was over 128 µg/mL and the “MIC … with KKOO-NH2” value (A. fumigatus AF293 [1]; [9]) was over 128 µg/mL. For the same compound, the “MIC of antifungal in combination with KKOO” value (A. fumigatus AF293 [1]; [10]) was over 128 µg/mL, the “MIC … with KKOO-NH2” value (A. fumigatus AF293 [1]; [11]) was over 128 µg/mL and the “MIC of antifungal in combination with KKOO” value (A. fumigatus AF293 [1]; [12]) was over 128 µg/mL. The “MIC … with KKOO-NH2” value (A. fumigatus AF293 [1]; [13]) was over 128 µg/mL, the “MIC of antifungal in combination with KKOO” value (A. fumigatus AF293 [1]; [14]) was over 128 µg/mL and the “MIC … with KKOO-NH2” value (A. fumigatus AF293 [1]; +8 μg/mL KKOO-NH2, CAS: paradoxical growth) was over 128 µg/mL. For the same compound, the “MIC of antifungal in combination with KKOO” value (A. fumigatus AF293 [1]; +8 μg/mL KKOO) was over 128 µg/mL, the MIC (C. neoformans apt2Δ) was 2 µg/mL (≈ 6.53 µM) and the MIC (C. neoformans Crm1^OE) was 0.25 µg/mL (≈ 0.816 µM). It also gave an MIC (C. neoformans cdc50Δ) of 0.125 µg/mL (≈ 0.408 µM), an MIC (C. neoformans crm1Δ) of 2 µg/mL (≈ 6.53 µM) and an MIC (C. neoformans apt3Δ) of 2 µg/mL (≈ 6.53 µM). For the same compound, the MIC (C. neoformans apt1Δ) was 0.5 µg/mL (≈ 1.63 µM), the MIC (C. neoformans apt4Δ) was 2 µg/mL (≈ 6.53 µM) and the MIC (C. neoformans MRL862; Cryptococcus neoformans, MRL862, compound alone, read-out: MIC) was 32 µg/mL (≈ 104 µM). The “MIC relative to wild-type strain H99 (higher)” value (C. neoformans MRL862) was 16 fold, the MIC (C. neoformans H99 [2]) was 2 µg/mL (≈ 6.53 µM) and the MIC (C. albicans SC5413 [3]) was over 16 µg/mL. For the same compound, the “MIC of antifungal in combination with KKOO” value (C. albicans SC5413 [4]; +0 μg/mL KKOO (control)) was over 16 µg/mL, the “MIC … with KKOO-NH2” value (C. albicans SC5413 [4]; +0 μg/mL KKOO-NH2 (control)) was over 16 µg/mL and the “MIC … with KKOO-NH2” value (C. albicans SC5413 [4]; +1 μg/mL KKOO-NH2) was over 16 µg/mL. The “MIC of antifungal in combination with KKOO” value (C. albicans SC5413 [4]; +1 μg/mL KKOO) was over 16 µg/mL, the “MIC … with KKOO-NH2” value (C. albicans SC5413 [4]; +2 μg/mL KKOO-NH2) was over 16 µg/mL and the “MIC of antifungal in combination with KKOO” value (C. albicans SC5413 [4]; +2 μg/mL KKOO) was over 16 µg/mL. The “MIC … with KKOO-NH2” value (C. albicans SC5413 [4]; +4 μg/mL KKOO-NH2) was over 16 µg/mL, the “MIC of antifungal in combination with KKOO” value (C. albicans SC5413 [4]; +4 μg/mL KKOO) was over 16 µg/mL and the “MIC of antifungal in combination with KKOO” value (C. albicans SC5413 [4]; +8 μg/mL KKOO) was 0.125 µg/mL. The “MIC of antifungal in combination with (FITC)KKOO” value (from here on “MIC of antifungal … (FITC)KKOO”) (C. neoformans H99 [5]; +0 μg/mL (FITC)KKOO) was 2 µg/mL, the “MIC of antifungal in combination with KKOO” value (C. neoformans H99 [5]; +0 μg/mL KKOO (control)) was 2 µg/mL and the “MIC … with KKOO-NH2” value (C. neoformans H99 [5]; +0 μg/mL KKOO-NH2 (control)) was 2 µg/mL. For the same compound, the “MIC … with KKOO-NH2” value (C. neoformans H99 [5]; +1 μg/mL KKOO-NH2) was 2 µg/mL, the “MIC of antifungal in combination with KKOO” value (C. neoformans H99 [5]; +1 μg/mL KKOO) was 2 µg/mL and the “MIC … with KKOO-NH2” value (C. neoformans H99 [5]; +2 μg/mL KKOO-NH2) was 2 µg/mL. The “MIC of antifungal in combination with KKOO” value (C. neoformans H99 [5]; +2 μg/mL KKOO) was 2 µg/mL, the “MIC of antifungal … (FITC)KKOO” value (C. neoformans H99 [5]; +4 μg/mL (FITC)KKOO) was 2 µg/mL and the “MIC … with KKOO-NH2” value (C. neoformans H99 [5]; +4 μg/mL KKOO-NH2) was 1 µg/mL. For the same compound, the “MIC of antifungal in combination with KKOO” value (C. neoformans H99 [5]; +4 μg/mL KKOO) was 2 µg/mL, the “MIC of antifungal … (FITC)KKOO” value (C. neoformans H99 [5]; +8 μg/mL (FITC)KKOO) was 2 µg/mL and the “MIC of antifungal in combination with KKOO” value (C. neoformans H99 [5]; +8 μg/mL KKOO) was 1 µg/mL. For the same compound, the MIC (C. glabrata FKS1-S629P) was 2 µg/mL (≈ 6.53 µM), the MIC (C. glabrata FKS2-S663P) was 2 µg/mL (≈ 6.53 µM) and the MIC (C. glabrata 2001) was 8 µg/mL (≈ 26.1 µM). The MIC (A. fumigatus AF293 [6]; Aspergillus fumigatus, AF293, 48 h) was over 128 µg/mL and the MIC (A. fumigatus AF293 [6]; compound alone, RPMI1640, 37 °C, 48 h, * = paradoxical growth observed (CAS)) was over 128 µg/mL.
